Source: publication PMC8062000, “High-throughput screening of the ReFRAME, Pandemic Box, and COVID Box drug repurposing libraries against SARS-CoV-2 nsp15 endoribonuclease to identify small-molecule inhibitors of viral activity” (PLoS ONE, 2021)
Values joined by “and” are separate entries in the source; they are usually repeats but may differ in a detail not shown here. Equal entries are not always repeated. Where two headings read alike, the source gives them in different places.

Key:
[1] = Mammalian cytotoxicity assay, CRL-8155; conditions: human, CRL-8155 lymphocyte cells
SARS-CoV-2 nsp15 [2] = biological target: T1, SARS-CoV-2 nsp15 (Severe acute respiratory syndrome coronavirus 2, UniProt P0DTD1); type: binding
SARS-CoV-2 [3] = assay: microbe, parasite or virus in culture; type: cell-based; conditions: for protection against viral CPE: Vero 76
[4] = biological target: T2, SARS-CoV-2 nsp15 endoribonuclease (endoU) (Severe acute respiratory syndrome coronavirus 2, UniProt P0DTD1); assay: biochemical; type: biochemical; conditions: for inhibition at 10 µM: read-out: 1° FRET Assay % inhibition
SARS-CoV-2 nsp15 [5] = biological target: T1, SARS-CoV-2 nsp15; assay: Native MS (CID/SID) ligand binding to nsp15
From the text: In native MS, nsp15 was electrosprayed from non-denaturing ammonium acetate solution in the presence of an inhibitor. Inhibitor binding can be evaluated by monitoring the increase in mass of the inhibitor-nsp15 complex compared to the apo (protein with no ligand) nsp15 protein. […] Collision-induced dissociation (CID), widely available in commercial mass spectrometers, involves acceleration of protein ions into a pressurized collision cell. Upon CID, the internal energy of the protein increases from multiple collisions with neutral gas molecules.
By increasing the acceleration voltage to 120V, CID and SID of the nsp15 hexamer both released primarily monomeric species (Fig 6B and 6C), with SID resulting in lower charged monomers and additional dimers/trimers. […] The peak cluster centered at 41.2 kDa is the apo protein (sequence mass and salt adducts).
Recombinant nsp15 was buffer exchanged into 100 mM ammonium acetate (pH adjusted to 7.5 using ammonium hydroxide) using size exclusion spin columns (Zeba Micro Spin Desalting Columns, 7k MWCO, 75 μL) following manufacturer’s protocol. The protein solution was then diluted to 5 μM, supplemented with 10 μM Mn(II) acetate, and mixed with ligands at desired concentrations. […]

[6] = Mammalian cytotoxicity assay, HepG2; conditions: human, HepG2 hepatocyte cells
[7] = Solubility observation in DMSO and assay buffer; conditions: diluted in assay buffer
[8] = Amplex Red redox-cycling counter screen (H2O2 generation with DTT); conditions: 1 mM DTT; compared with redox-cycling reference DA-3003-1
SARS-CoV-2 [9] = tested on: SARS-CoV-2; parameters: method as in PMID 33564093; conditions: at 50 μM concentrations ref 15; cited from earlier work
[10] = 100 mg/kg oral dose, Sprague-Dawley rats, no reference given, cited from earlier work
[11] = Cell viability in Calu-3 cells (cell number per well); conditions: human, CC50, Calu-3, 48 h
[12] = Cytotoxicity in Vero 76 cells (CPE assay toxicity wells); conditions: African green monkey
[13] = tested on: SARS-CoV-2 (isolate USA WA1/2020); assay: microbe, parasite or virus in culture; type: cell-based; conditions: Severe acute respiratory syndrome coronavirus 2; Calu-3, MOI = 0.5, 48 h, immunostaining; read-out: EC50 (infection)
[14] = Cytotoxicity in Caco-2 cells; conditions: human
SARS-CoV-2 [15] = assay: microbe, parasite or virus in culture; type: cell-based; conditions: Severe acute respiratory syndrome coronavirus 2, read-out: EC90 (concentration that reduces viral replication by 90%); Caco-2, microscopic observation
[16] = mice, 100 mg/kg per day for 6 months ref 37; cited from earlier work
[17] = biological target: T2, SARS-CoV-2 nsp15 endoribonuclease (endoU); assay: biochemical; conditions: 0.78 μM nsp15, 500 ng poly(rA) substrate, 2 h; n = 3; read-out: RNA Cleavage Assay IC50
[18] = primary screen at 10 μM, 25 nM nsp15, 0.5 μM substrate, 1 h

For `O=C(Nc1cccc(C2=NCCN2)c1)c1ccc(-c2ccc(C(=O)Nc3cccc(C4=NCCN4)c3)cc2)cc1` [MMV1580853], the CC50 at 48 h [1] was over 80 µM, the “DSF Assay ΔTm” value (SARS-CoV-2 nsp15 [2]) was 0.1 °C and the “protection against viral CPE” value (SARS-CoV-2 [3]) was “Neither Piroxantrone nor MMV1580853 exhibited protection against viral CPE”. For the same compound, the inhibition at 10 µM [4, 18] was 62%, the “binding detected on CID- or SID-released monomers” value (SARS-CoV-2 nsp15 [5]; ~10 μM compound, 5 μM nsp15) was “too weak to be detected” and the CC50 at 48 h [6] was over 80 µM. For the same compound, the solubility [7] was “poor solubility” and the “Amplex Red Assay % Activity (redox cycling)” value (from here on “Amplex Red Assay % Activity”) [8] was under 25%.

Work on `CC(=O)O[C@H]1C[C@@H]2CC[C@@H]3[C@H](CC[C@@]4(C)[C@H]3C[C@H]([N+]3(C)CCCCC3)[C@@H]4OC(C)=O)[C@@]2(C)C[C@@H]1N1CCCCC1` [vecuronium bromide] yielded an inhibition at 10 µM [4] of 61%.

For `N=C1CCCN1Cc1nc(O)nc(O)c1Cl` [tipiracil], the antiviral activity (SARS-CoV-2 [9]) is given as “only minimal antiviral activity”.

For `C[C@@H]1CNS(=O)(=O)N(c2ccc3c(C#N)nccc3c2)C1` [PF-06260414], the “1° FRET Assay % inhibition” value [4] was 74%, the IC50 ([4]; read-out: 2° FRET Assay IC50) was 7.69 µM and the IC50 ([4]; read-out: 3° FRET Assay IC50) was over 80 µM.

For `Cc1cc(-c2ccc(/N=N/c3c(S(=O)(=O)O)cc4cc(S(=O)(=O)O)cc(N)c4c3O)c(C)c2)ccc1/N=N/c1c(S(=O)(=O)O)cc2cc(S(=O)(=O)O)cc(N)c2c1O` [Trypan Blue], the IC50 ([4]; 2° FRET Assay IC50) was 5.08 µM and 7.78 µM, the “1° FRET Assay % inhibition” value [4, 18] was 51% and the inhibition at 10 µM [4, 18] was 58%.

For `O=C1C(NC2CCCCCCC2)=CC(=O)c2ncccc21` [Azaquinone], the “DSF Assay ΔTm” value (SARS-CoV-2 nsp15 [2]) was -11.4 °C, the “nsp15 Tm lowered by” value (SARS-CoV-2 nsp15 [2]) was “more than 10 °C” and the inhibition at 10 µM [4, 18] was 80%. The “Amplex Red Assay % Activity” value [8] was over 100%.

In the case of `Cc1nc2c(s1)C(=O)C=C(NCCN(C)C)C2=O` [BN-82685], the “DSF Assay ΔTm” value (SARS-CoV-2 nsp15 [2]) is reported as -11.3 °C, the “nsp15 Tm lowered by” value (SARS-CoV-2 nsp15 [2]) is reported as “more than 10 °C” and the inhibition at 10 µM [4, 18] is reported as 76%. The “Amplex Red Assay % Activity” value [8] was over 100%.

In the case of `CC1(C)CCC2=C(O1)c1ccccc1C(=O)C2=O` [β-Lapachone], the “DSF Assay ΔTm” value (SARS-CoV-2 nsp15 [2]) is reported as -11.5 °C, the “nsp15 Tm lowered by” value (SARS-CoV-2 nsp15 [2]; negative Tm shift, 100 μM ligand) is reported as “more than 10 °C” and the “3° FRET Assay IC50” value [4] is reported as “sub-micromolar”. The IC50 ([4]; 2° FRET Assay IC50) was 2.78 µM, the IC50 ([4]; 3° FRET Assay IC50) was 0.31 µM and the inhibition at 10 µM [4] was 73%. The “Amplex Red Assay % Activity” value [8] was over 100%.

In the case of `C/C1=C2/[N-][C@H]([C@H](CC(N)=O)[C@@]2(C)CCC(=O)NC[C@@H](C)OP(=O)([O-])O[C@H]2[C@@H](O)[C@@H](n3cnc4cc(C)c(C)cc43)O[C@@H]2CO)[C@]2(C)N=C(/C(C)=C3N=C(/C=C4N=C1[C@@H](CCC(N)=O)C\4(C)C)[C@@H](CCC(N)=O)[C@]\3(C)CC(N)=O)[C@@H](CCC(N)=O)[C@]2(C)CC(N)=O.[CH3-].[Co+3]` [Mecobalamin], the “DSF Assay ΔTm” value (SARS-CoV-2 nsp15 [2]) is reported as -3.4 °C, the “1° FRET Assay % inhibition” value [4, 18] is reported as 58% and the IC50 ([4]; secondary dose response, 8-point 3-fold, top concentration 10 μM, read-out: 2° FRET Assay IC50) is reported as 3.34 µM. The IC50 ([4]; tertiary dose response, expanded concentration range, read-out: 3° FRET Assay IC50) was 18.3 µM.

For `COc1cccc2c1C(=O)c1c(O)c3c(c(O)c1C2=O)C[C@@](O)(C(=O)CO)C[C@@H]3O[C@H]1C[C@H](N)[C@H](O[C@@H]2CCCCO2)[C@H](C)O1` [pirarubicin], the “DSF Assay ΔTm” value (SARS-CoV-2 nsp15 [2]) was 0.4 °C, the IC50 ([4]; 2° FRET Assay IC50) was 3.78 µM and the IC50 ([4]; 3° FRET Assay IC50) was 5.98 µM. It also gave an inhibition at 10 µM [4] of 66%.

For `CCc1ccccc1NC(=O)Oc1ccc2c(c1)[C@]1(C)CCN(C)O[C@@H]1N2C` [Ganstigmine], the inhibition at 10 µM [4] was 51%.

For `O=C(Nc1ccc(O)c(O)c1)c1cccc(O)c1O` [Exebryl-1], the plasma concentration ([10]; at 1 h) is listed as 9 µM, the plasma levels ([10]; by 4 h after dosing) is listed as “below 4 μM” and the CC50 at 48 h [11] is listed as over 200 µM. The CC50 at 48 h [1] was 37.8 µM, the “DSF Assay ΔTm” value (SARS-CoV-2 nsp15 [2]) was 0.1 °C and the EC50 (SARS-CoV-2 [3]; Severe acute respiratory syndrome coronavirus 2, Vero 76, read-out: EC50 (concentration that reduces CPE by 50%)) was 10 µM. It also gave an EC50 (SARS-CoV-2 [3]; Severe acute respiratory syndrome coronavirus 2, Vero 76, neutral red staining, read-out: EC50 (CPE)) of 16 µM, an antiviral activity (SARS-CoV-2 [3]; summary across Vero 76, Caco-2, and Calu-3 cells) of 10 to 66 µM and a CC50 at 5 days ([12]; CC50, Vero 76, microscopic observation) of 52 µM. It also gave a CC50 at 5 days ([12]; CC50, Vero 76 cell growth, neutral red staining) of 57 µM, an inhibition at 10 µM [4, 18] of 57% and a Kd (SARS-CoV-2 nsp15 [5]) of about 12 µM. The EC50 [13] was 65.6 µM, the CC50 [14] was 61 µM and the CC50 at 48 h [6] was over 200 µM. The EC90 (SARS-CoV-2 [15]) was 51 µM, the toxicity [16] was “without evident toxicity” and the IC50 [17] was 9.27 µM.

For `Cc1cc(N)c2cc(NC(=O)Nc3ccc4nc(C)cc(N)c4c3)ccc2n1` [Aminoquinuride], the inhibition at 10 µM [4] was 95%.

With `NCCCNc1ccc2c3c(nn2CCNCCO)-c2c(O)ccc(O)c2C(=O)c13` [Piroxantrone] the CC50 at 48 h [1] was under 1.25 µM, the “DSF Assay ΔTm” value (SARS-CoV-2 nsp15 [2]) was -1.1 °C and the “protection against viral CPE” value (SARS-CoV-2 [3]) was “Neither Piroxantrone nor MMV1580853 exhibited protection against viral CPE”. For the same compound, the inhibition at 10 µM [4, 18] was 74% and the CC50 at 48 h [6] was 33.9 µM.

Work on `CC(C)(O/N=C(\C(=O)N[C@@H]1C(=O)N2C(C(=O)[O-])=C(C[n+]3ccccc3)CS[C@H]12)c1csc(N)n1)C(=O)O` [Ceftazidime] yielded an IC50 ([4]; 2° FRET Assay IC50) of over 10 µM, an IC50 ([4]; 3° FRET Assay IC50) of 72 µM and an inhibition at 10 µM [4, 18] of 66%.

With `COC1=C(N)C(=O)c2nc(-c3nc(C(=O)O)c(C)c(-c4ccc(OC)c(OC)c4O)c3N)ccc2C1=O` [Streptonigrin] the “DSF Assay ΔTm” value (SARS-CoV-2 nsp15 [2]) was -11.5 °C, the “nsp15 Tm lowered by” value (SARS-CoV-2 nsp15 [2]) was “more than 10 °C” and the “3° FRET Assay IC50” value [4] was “sub-micromolar”. The IC50 ([4]; 2° FRET Assay IC50) was 4.25 µM, the IC50 ([4]; 3° FRET Assay IC50) was 0.29 µM and the inhibition at 10 µM [4] was 89%. The “Amplex Red Assay % Activity” value [8] was over 100%.

In the case of `CC1(C)C(=O)N=C2C1=C(O)C(=O)c1ccccc12` [BVT-948], the “DSF Assay ΔTm” value (SARS-CoV-2 nsp15 [2]) is reported as -11.8 °C, the “nsp15 Tm lowered by” value (SARS-CoV-2 nsp15 [2]) is reported as “more than 10 °C” and the “1° FRET Assay % inhibition” value [4] is reported as 90%. The IC50 ([4]; read-out: 2° FRET Assay IC50) was 4.96 µM and the IC50 ([4]; read-out: 3° FRET Assay IC50) was 0.1 µM.

`CC(=O)[C@]1(O)Cc2c(O)c3c(c(O)c2[C@@H](O[C@H]2C[C@H](N)[C@H](O)[C@H](C)O2)C1)C(=O)c1c(O)cccc1C3=O` [Carubicin] gave an inhibition at 10 µM [4] of 56%.

`COc1cccc2c1C(=O)c1c(O)c3c(c(O)c1C2=O)C[C@@](O)(C(=O)CO)C[C@@H]3O[C@H]1C[C@H](N)[C@H](O)[C@H](C)O1` [Doxorubicin] gave an IC50 ([4]; 2° FRET Assay IC50) of 7.46 µM and an IC50 ([4]; 3° FRET Assay IC50) of 9.29 µM.

In the case of `O=C1NC(=O)/C(=C\c2ccccc2)C2=C1CCCC2` [Tesimide], the “DSF Assay ΔTm” value (SARS-CoV-2 nsp15 [2]) is reported as -11.7 °C, the “nsp15 Tm lowered by” value (SARS-CoV-2 nsp15 [2]) is reported as “more than 10 °C” and the inhibition at 10 µM [4, 18] is reported as 82%.
